# Source: patent publication US20220226321A1, “INHIBITOR OF MNK FOR THE TREATMENT OF NEUROPATHIC PAIN” (Board of Regents, The University of Texas System, priority 2019, published 2022)
# Entries after “also recorded” stand apart in the source; their conditions may differ.
# Columns and labels:
# paclitaxel-treated mice = experiment: mechanical paw withdrawal threshold (von Frey) in paclitaxel-induced CIPN; assay type: in vivo, mouse; conditions: intrathecal 10 μg, paclitaxel-induced pain
# cultured DRG neurons = experiment: Western blot of cultured DRG neurons treated with IFN-α, IFN-β, ISRIB or poly (I:C); assay type: cell-based, mouse; conditions: for AKT phosphorylation / ERK and eIF4E phosphorylation / downstream JAK/STAT signaling pathways / BiP expression or signaling via PKR and downstream p-eIF2α / PKR phosphorylation / mTOR or ribosomal protein S6 phosphorylation: 300 U/mL; for BiP expression or signaling via PKR and downstream p-eIF2α: 1-6 h; for PKR phosphorylation: long exposure (24 h); for mTOR or ribosomal protein S6 phosphorylation: time course of 6 h
# Description: Primary cell culture of mouse DRG neurons and Western blot. Cultured primary DRG neurons were used to test the effects of IFN-α [(300 units (U)/mL] and IFN-β [(300 units (U)/mL] application. For these experiments, mice were anesthetized with isoflurane and killed by decapitation. Then DRGs, from all spinal levels, were dissected and placed in chilled Hanks balanced-salt solution (HBSS, Invitrogen) until processed. Dorsal root ganglia were digested in 1 mg/mL collagenase A (Roche, Mannheim, Germany) for 25 minutes at 37° C. then subsequently digested in a 1:1 mixture of 1 mg/mL collagenase D and papain (Roche) for 20 minutes at 37° C. After this step, dorsal root ganglia were then triturated in a 1:1 mixture of 1 mg/mL trypsin inhibitor (Roche) and bovine serum albumin (BioPharm Laboratories, Bluffdale, Utah), then filtered through a 70 μm cell strainer (Corning, N.Y.). Cells were pelleted then resuspended in DMEM/F12 with GlutaMAX (Thermo Fisher Scientific, MA) containing 10% fetal bovine serum (FBS; Thermo Fisher Scientific), 5 ng/mL NGF, 1% penicillin and streptomycin, and […] to inhibit mitosis of non-neuronal cells and were distributed evenly in a 6-well plate coated with poly-D-lysine (Becton Dickinson, NJ). DRG neurons were maintained in a 37° C. incubator containing 5% CO2 with a media change every other day. On day 6, DRG neurons were treated with either vehicle, IFN-α or IFN-β for 1, 3, 6 and 24 h. Following treatments, cells were rinsed with chilled 1×PBS buffer, harvested in 200 μL of RIPA lysis buffer (50 mM Tris, pH 7.4, 150 mM NaCl, 1 mM EDTA, pH 8.0, and 1% Triton X-100) containing protease and phosphatase inhibitors (Sigma-Aldrich), and then sonicated for 5 seconds. To clear debris, samples were centrifuged at 14,000 rpm for 15 min at 4° C. Ten to 15 μg of protein was loaded into each well and separated by a 10% SDS-PAGE gel. Proteins were transferred to a 0.45 PVDF membrane (Millipore, MA) at 30 V overnight at 4° C. Subsequently, membranes were blocked with 5% non-fat dry milk in 1× Tris buffer solution containing Tween 20 (TTBS) for at least 2 h. Membranes were washed 3 times for 10 minutes each (3×10) in 1×TTBS, then incubated with primary antibodies overnight at 4° C. The following day, membranes were washed 3×10 each then incubated with the corresponding secondary antibodies at room temperature for 1 h. After incubation, membranes were washed with 1×TTBS 3×10 each. Signals were detected using Immobilon Western Chemiluminescent HRP Substrate (Millipore) and then visualized with Bio-Rad ChemiDoc Touch. Membranes were stripped using Restore Western Blot Stripping buffer (Thermo Fisher Scientific) and reprobed with another antibody. Analysis was performed using Image lab 6.0.1 software for Mac (Bio-Rad, Hercules, Calif.).
# SNI mice [1] = experiment: mechanical withdrawal threshold (von Frey) after SNI; assay type: in vivo, mouse; conditions: WT and 4EKI, 10 μg i.t., 2 hours after injection on each CPP conditioning day
# Description: (§1) Surgery. Spared nerve injury (SNI) was performed by the ligation and cutting of the tibial and peroneal branches of the left sciatic nerve trifurcation, leaving the sural branch intact as previously described (Decosterd and Woolf, 2000). Sham surgeries were performed the same way but without cutting the nerve. Mice were allowed to recover for 2 weeks following surgery.
# Mechanical withdrawal threshold. Tactile sensitivity was measured by probing the left outer surface of the left hindpaw with a series of calibrated von Frey filaments. Mechanical withdrawal thresholds were assessed in all animals before (baseline) and after (2 weeks) surgery to confirm neuropathy. Withdrawal thresholds were calculated using the up-down method (Chaplan et al., 1994).
# SNI mice [2] = experiment: conditioned place preference (CPP) after SNI; assay type: in vivo, mouse; conditions: 10 μg i.t.
# Description: Conditioned Place Preference. A previously published CPP protocol from the Walters laboratory protocol was used (Yang et al., 2014). The CPP box consisted of one black and one white chamber connected by a striped chamber. CPP was conducted in a dark room with a single low lumens light source (Maia 69E120-WH). The middle chamber of the CPP box was brightly illuminated to discourage mice from spending time in the middle chamber. […] On day 1 of testing (preconditioning), each mouse was permitted to explore the middle and black (but not white) chambers for 30 minutes. […] On the last day of CPP, each mouse was placed in the middle chamber with unrestricted access to all chambers and video-recorded for 10 min. Data are presented as the percent change in time spent in the drug-paired chambered compared to the control (vehicle or sham for each genotype or surgery). This was calculated by dividing each animal's time spent in the white box by the control average, multiplying by 100 and then subtracting 100.
# as §1
# infralimbic cortex = conditions: neuropathic mice (Shiers et al., 2018); cited from earlier work
# SNI mice [3] = conditions: neuropathic mice (Shiers et al., 2018); cited from earlier work
# DRG neurons [4] = experiment: patch-clamp electrophysiology of DRG neurons exposed to IFN-α; conditions: 300 U/mL, ~1 h
# eIF4E = experiment: immunocytochemistry of p-eIF4E in cultured DRG neurons; assay type: cell-based, mouse; conditions: 300 U/mL, one-hour stimulation
# Description: Immunofluorescence. For primary neuronal cultures, DRG neurons were harvested and cultured for 6 days according to the protocol described above with the exception that cells were distributed evenly on poly-D-lysine-coated 8-well chamber slide with removable wells (cat #12-565-8, Fisher Scientific). After treatments, cells were fixed in ice-cold 10% formalin in 1×PBS for 1 h and processed for immunocytochemistry (ICC). Cells were washed with 1×PBS and permeabilized in 1×PBS containing 10% heat-inactivated normal goat serum (NGS; Atlanta Biologicals, Atlanta, Ga.) and 0.02% Triton X-100 (Sigma) in 1×PBS for 30 min and then blocked in 10% NGS in 1×PBS for 2 h. […] Images were taken using an Olympus FluoView 1200 confocal microscope and analyzed with FIJI for Mac OS X. Images shown are representative of samples taken from 3 separate wells and presented as projections of Z stacks. Using ImageJ, the corrected total cell fluorescence (CTCF) was calculated to determine the intensity of the signal between experimental groups. To do so, the integrated density and the area, as well as the background noise was measured and the CTCF calculated as equal to: the integrated density −(area of selected cell×mean fluorescence of background readings). CTCF values from all experimental treatment groups were normalized to vehicle groups and expressed as normalized CTCF.
# mice [5] = experiment: thermal latency (Hargreaves) after type I IFN or poly (I:C); assay type: in vivo, mouse; conditions: i.pl. 300 U/25 μL; for thermal hypersensitivity: female mice; for paw withdrawal latency to thermal stimulation: male mice
# Description: (§2) Behavior. Mice were housed on 12-hour light/dark cycles with food and water available ad libitum. Mice were randomized to groups from multiple cages to avoid using mice from experimental groups that were cohabitating. Sample size was estimated by performing a power calculation using G*Power (version 3.1.9.2). With 80% power and an expectation of d=2.2 effect size in behavioral experiments, and a set to 0.05, the sample size required was calculated as n=6 per group. The inventors therefore sought to have at least n=6 sample in all behavioral experiments. SD (set at 0.3) for the power calculation was based on previously published mechanical threshold data from the inventors' lab (Moy et al., 2017). Animals were habituated for 1 hour to clear acrylic behavioral chambers before beginning the experiment. For intraplantar injections, drugs were injected in a total volume of 25 μL through a 30-gauge needle. For intraperitoneal injections, drugs were administered in a volume of 100 μL Mechanical paw withdrawal thresholds in mice were measured using the up-down method (Chaplan et al., 1994) with calibrated von Frey filaments (Stoelting Company, WoodDale, Ill.). Thermal latency was measured using a Hargreaves device (IITC Life Science) (Hargreaves et al., 1988) with heated glass settings of 29° C., 40% active laser power, and 20 sec cutoff were used. The experimenter was blinded to the genotype of the mice and the drug condition in all experiments.
# mice [6] = experiment: mechanical paw withdrawal threshold (von Frey) after type I IFN or poly (I:C); assay type: in vivo, mouse; conditions: i.pl. 300 U/25 μL; for hind paw mechanical hypersensitivity: female mice; for mechanical hypersensitivity to von Frey filament stimulation: male mice
# Description: as §2
# [7] = tested on: cultured mouse DRG neurons; experiment: microelectrode array (MEA) recordings of cultured DRG neurons exposed to IL-6; assay type: cell-based; conditions: IL-6 100 ng/ml, tomivosertib 25 nM co-treatment
# Description: Extracellular electrophysiology. Substrate-integrated microelectrode array (MEA) recordings were performed using PDL and laminin pre-treated 12-well MEA plates (Axion Biosystems, USA) and an Axion Maestro recording system. DRG sensory neurons were dissected, dissociated, and seeded as previously described (Moy et al., 2017). […] Cultures were maintained at 37° C., 5% CO2, and ≥90% humidity throughout the recordings. Briefly, 30 min baseline recordings were carried out following a 30 min acclimation period. […] Recordings were then collected continuously for 3 hours. […] Online and offline MEA data analysis was performed using Axion's AxIS, NeuralMetrics Tools, and NeuroExplorer (NeuroExplorer, USA). Physiologically relevant extracellular action potentials were defined as previously described^29.
# DRG neurons [8] = experiment: whole-cell patch clamp of cultured DRG neurons treated with IL-6 and eFT508; assay type: cell-based, mouse
# Description: Phosphorylation of the 5′ cap-binding protein eIF4E by MAPK interacting kinases MNK1/2 is important for nociceptor sensitization and the development of chronic pain. IL-6 induced DRG nociceptor excitability is attenuated in mice lacking eIF4E phosphorylation, in MNK1/2^−/− mice and by the nonselective MNK1/2 inhibitor cercosporamide. […] Dorsal root ganglion (DRG) neurons were cultured from male and female ICR mice, 4-7 weeks old. […] Whole-cell patch clamp recordings were done on small diameter neurons (20-30 pF) to measure membrane excitability in response to ramp depolarization. […] These findings are consistent with a model wherein MNK-eIF4E signaling controls the translation of signaling factors that regulate T-type VGCCs in response to IL-6 treatment.
molecule,measurement,setting,value
COc1ccc(-c2ccc3c(N4CCOC[C@@H]4C)nc(N4CCOC[C@@H]4C)nc3n2)cc1CO [AZD8055],mechanical allodynia / hypersensitivity after first injection,paclitaxel-treated mice,robust reduction in mechanical hypersensitivity; also recorded: relieves mechanical allodynia
same,mechanical allodynia / hypersensitivity after second (subsequent) injection,paclitaxel-treated mice,the magnitude of this effect was decreased; also recorded: no significant effects were observed
O=C(COc1ccc(Cl)cc1)NC1CCC(NC(=O)COc2ccc(Cl)cc2)CC1 (centres unmarked) [ISRIB],PKR phosphorylation after 24 h IFN-α (300 U/mL) in the presence of ISRIB,cultured DRG neurons; ISRIB 200 nM,no changes
same,components of the signaling pathways activated after IFN-α or IFN-β application,cultured DRG neurons; ISRIB 200 nM,did not modulate
Clc1cccc(Cl)c1N=C1NCCN1 [clonidine],mechanical hypersensitivity,SNI mice [1],significantly attenuated mechanical hypersensitivity
same,time spent in the drug-paired chamber vs 4EKI sham,SNI mice [2]; 4EKI SNI mice,no significant difference
same,more time in the clonidine-paired chamber vs WT sham,SNI mice [2]; WT SNI female mice,~30%
CN(C)C(=N)N=C(N)N [metformin],AIS shrinkage in the IL,infralimbic cortex,attenuated
same,cognitive deficits,SNI mice [3],attenuated
IFN-α,"excitability, number of action potentials elicited by ramp current injections",DRG neurons [4],elevated excitability
same,latency to the first spike following ramp current injection,DRG neurons [4],shortened the latency
same,resting membrane potential (RMP),DRG neurons [4],-47.5±2.5 mV
same,phosphorylation of eIF4E (ICC),eIF4E,stimulated phosphorylation of eIF4E
same,thermal hypersensitivity,mice [5],no significant changes
same,paw withdrawal latency to thermal stimulation,mice [5],no significant changes
same,AKT phosphorylation,cultured DRG neurons,stimulated AKT phosphorylation
same,ERK and eIF4E phosphorylation,cultured DRG neurons,increase
same,downstream JAK/STAT signaling pathways,cultured DRG neurons,rapidly activated
same,BiP expression or signaling via PKR and downstream p-eIF2α,cultured DRG neurons,did not modify
same,PKR phosphorylation,cultured DRG neurons,did not modify
same,mTOR or ribosomal protein S6 phosphorylation,cultured DRG neurons,did not observe any changes
same,hind paw mechanical hypersensitivity,mice [6],increased hind paw mechanical hypersensitivity
same,mechanical hypersensitivity to von Frey filament stimulation,mice [6],rapid mechanical hypersensitivity
"IL-6: interleukin-6, a cytokine that evokes pain",spontaneous firing,[7],enhanced spontaneous firing
same,amplitudes of T-type voltage-gated calcium channels (VGCCs),"DRG neurons [8]; IL-6, eFT508 co-treatment",increased
same,latency to the first action potential in the ramp protocol,"DRG neurons [8]; IL-6, eFT508 pretreatment",lower
same,action potential firing in response to ramp depolarization,"DRG neurons [8]; one hr IL-6, eFT508 pretreatment followed by IL-6",increased action potential firing
"IFN-β: Recombinant mouse IFN-β protein (protein, UniProt P01575 22-182, looked up) Interferon beta: INYKQLQLQERTNIRKCQELLEQLNGKINLTYRADFKIPMEMTEKMQKSYTAFAIQEMLQNVFLVFRNNFSSTGWNETIVVRLLDELHQQTVFLKTVLEEKQEERLTWEMSSTALHLKSYYWRVQRYLKLMKYNSYAWMVVRAEIFRNFLIIRRLTRNFQN",phosphorylation of eIF4E (ICC),eIF4E,stimulated phosphorylation of eIF4E
same,thermal hypersensitivity,mice [5],no significant changes
same,paw withdrawal latency to thermal stimulation,mice [5],no significant changes
same,AKT phosphorylation,cultured DRG neurons,stimulated AKT phosphorylation
same,ERK and eIF4E phosphorylation,cultured DRG neurons,increase
same,downstream JAK/STAT signaling pathways,cultured DRG neurons,rapidly activated
same,BiP expression or signaling via PKR and downstream p-eIF2α,cultured DRG neurons,did not modify
same,PKR phosphorylation,cultured DRG neurons,did not modify
same,mTOR or ribosomal protein S6 phosphorylation,cultured DRG neurons,did not observe any changes
same,hind paw mechanical hypersensitivity,mice [6],increased hind paw mechanical hypersensitivity
same,mechanical hypersensitivity to von Frey filament stimulation,mice [6],rapid mechanical hypersensitivity
